Data as given in PubChem BioAssay (NCI).
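A five-concentration, 48-hour dose response in 96-well plates underlies each endpoint, interpolated linearly between surrounding concentrations. TGI: concentration producing complete growth inhibition.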

system: MOLT-4 leukemia; assay: DTP human tumour cell line panel, 48 h

SMILES	TGI [µM]
COc1cc(S(=O)(=O)Nc2ccc(-c3csc(N4C(=O)C(C)SC4c4cccc(Oc5ccccc5)c4)n3)cc2)ccc1Cl (centres undefined)	> 100
O=c1cc(NNc2ccc(F)cc2)[nH]c(=O)[nH]1	59.3
CC(CCc1ccccc1)NCC(O)n1c(/N=N/N(C)C)nc2c1c(=O)n(C)c(=O)n2C (centres undefined)	> 100
O=C1CC(Cl)c2c1csc2Br (centres undefined)	22.2

system: UO-31 renal; assay: DTP human tumour cell line panel, 48 h

SMILES	TGI [µM]
Cc1ccc(N=Nc2c(O)c(C(=O)O)cc3ccccc23)c(S(=O)(=O)O)c1	> 100
COc1cc(S(=O)(=O)Nc2ccc(-c3csc(N4C(=O)C(C)SC4c4cccc(Oc5ccccc5)c4)n3)cc2)ccc1Cl (centres undefined)	> 100
O=c1cc(NNc2ccc(F)cc2)[nH]c(=O)[nH]1	31.8
CC(CCc1ccccc1)NCC(O)n1c(/N=N/N(C)C)nc2c1c(=O)n(C)c(=O)n2C (centres undefined)	> 100
O=C1CC(Cl)c2c1csc2Br (centres undefined)	23.8

system: SF-539 CNS; assay: DTP human tumour cell line panel, 48 h

SMILES	TGI [µM]
COc1cc(S(=O)(=O)Nc2ccc(-c3csc(N4C(=O)C(C)SC4c4cccc(Oc5ccccc5)c4)n3)cc2)ccc1Cl (centres undefined)	> 100
O=c1cc(NNc2ccc(F)cc2)[nH]c(=O)[nH]1	44.5
CC(CCc1ccccc1)NCC(O)n1c(/N=N/N(C)C)nc2c1c(=O)n(C)c(=O)n2C (centres undefined)	> 100
O=C1CC(Cl)c2c1csc2Br (centres undefined)	6.46

system: MCF7 breast; assay: DTP human tumour cell line panel, 48 h

SMILES	TGI [µM]
COc1cc(S(=O)(=O)Nc2ccc(-c3csc(N4C(=O)C(C)SC4c4cccc(Oc5ccccc5)c4)n3)cc2)ccc1Cl (centres undefined)	72.2
CC(CCc1ccccc1)NCC(O)n1c(/N=N/N(C)C)nc2c1c(=O)n(C)c(=O)n2C (centres undefined)	> 100
O=C1CC(Cl)c2c1csc2Br (centres undefined)	19.6

system: SK-MEL-5 melanoma; assay: DTP human tumour cell line panel, 48 h

SMILES	TGI [µM]
Cc1ccc(N=Nc2c(O)c(C(=O)O)cc3ccccc23)c(S(=O)(=O)O)c1	> 100
COc1cc(S(=O)(=O)Nc2ccc(-c3csc(N4C(=O)C(C)SC4c4cccc(Oc5ccccc5)c4)n3)cc2)ccc1Cl (centres undefined)	> 100
O=c1cc(NNc2ccc(F)cc2)[nH]c(=O)[nH]1	67.1
CC(CCc1ccccc1)NCC(O)n1c(/N=N/N(C)C)nc2c1c(=O)n(C)c(=O)n2C (centres undefined)	> 100
O=C1CC(Cl)c2c1csc2Br (centres undefined)	30.6

system: SNB-75 CNS; assay: DTP human tumour cell line panel, 48 h

SMILES	TGI [µM]
Cc1ccc(N=Nc2c(O)c(C(=O)O)cc3ccccc23)c(S(=O)(=O)O)c1	> 100
COc1cc(S(=O)(=O)Nc2ccc(-c3csc(N4C(=O)C(C)SC4c4cccc(Oc5ccccc5)c4)n3)cc2)ccc1Cl (centres undefined)	> 100
O=c1cc(NNc2ccc(F)cc2)[nH]c(=O)[nH]1	31.1
CC(CCc1ccccc1)NCC(O)n1c(/N=N/N(C)C)nc2c1c(=O)n(C)c(=O)n2C (centres undefined)	> 100
O=C1CC(Cl)c2c1csc2Br (centres undefined)	35.4

system: HCT-116 colon; assay: DTP human tumour cell line panel, 48 h

SMILES	TGI [µM]
Cc1ccc(N=Nc2c(O)c(C(=O)O)cc3ccccc23)c(S(=O)(=O)O)c1	> 100
COc1cc(S(=O)(=O)Nc2ccc(-c3csc(N4C(=O)C(C)SC4c4cccc(Oc5ccccc5)c4)n3)cc2)ccc1Cl (centres undefined)	> 100
O=c1cc(NNc2ccc(F)cc2)[nH]c(=O)[nH]1	34.1
CC(CCc1ccccc1)NCC(O)n1c(/N=N/N(C)C)nc2c1c(=O)n(C)c(=O)n2C (centres undefined)	> 100
O=C1CC(Cl)c2c1csc2Br (centres undefined)	33.1

system: A498 renal; assay: DTP human tumour cell line panel, 48 h

SMILES	TGI [µM]
Cc1ccc(N=Nc2c(O)c(C(=O)O)cc3ccccc23)c(S(=O)(=O)O)c1	> 100
COc1cc(S(=O)(=O)Nc2ccc(-c3csc(N4C(=O)C(C)SC4c4cccc(Oc5ccccc5)c4)n3)cc2)ccc1Cl (centres undefined)	79.3
O=c1cc(NNc2ccc(F)cc2)[nH]c(=O)[nH]1	> 100
CC(CCc1ccccc1)NCC(O)n1c(/N=N/N(C)C)nc2c1c(=O)n(C)c(=O)n2C (centres undefined)	> 100
O=C1CC(Cl)c2c1csc2Br (centres undefined)	53.8

system: UACC-257 melanoma; assay: DTP human tumour cell line panel, 48 h

SMILES	TGI [µM]
Cc1ccc(N=Nc2c(O)c(C(=O)O)cc3ccccc23)c(S(=O)(=O)O)c1	> 100
O=c1cc(NNc2ccc(F)cc2)[nH]c(=O)[nH]1	> 100
CC(CCc1ccccc1)NCC(O)n1c(/N=N/N(C)C)nc2c1c(=O)n(C)c(=O)n2C (centres undefined)	> 100
O=C1CC(Cl)c2c1csc2Br (centres undefined)	32.1

system: 786-0 renal; assay: DTP human tumour cell line panel, 48 h

SMILES	TGI [µM]
Cc1ccc(N=Nc2c(O)c(C(=O)O)cc3ccccc23)c(S(=O)(=O)O)c1	> 100
O=c1cc(NNc2ccc(F)cc2)[nH]c(=O)[nH]1	25.5
CC(CCc1ccccc1)NCC(O)n1c(/N=N/N(C)C)nc2c1c(=O)n(C)c(=O)n2C (centres undefined)	> 100
O=C1CC(Cl)c2c1csc2Br (centres undefined)	25.9

system: NCI-H23 lung; assay: DTP human tumour cell line panel, 48 h

SMILES	TGI [µM]
Cc1ccc(N=Nc2c(O)c(C(=O)O)cc3ccccc23)c(S(=O)(=O)O)c1	> 100
COc1cc(S(=O)(=O)Nc2ccc(-c3csc(N4C(=O)C(C)SC4c4cccc(Oc5ccccc5)c4)n3)cc2)ccc1Cl (centres undefined)	> 100
O=c1cc(NNc2ccc(F)cc2)[nH]c(=O)[nH]1	82.7
CC(CCc1ccccc1)NCC(O)n1c(/N=N/N(C)C)nc2c1c(=O)n(C)c(=O)n2C (centres undefined)	> 100
O=C1CC(Cl)c2c1csc2Br (centres undefined)	28.9

system: SNB-19 CNS; assay: DTP human tumour cell line panel, 48 h

SMILES	TGI [µM]
Cc1ccc(N=Nc2c(O)c(C(=O)O)cc3ccccc23)c(S(=O)(=O)O)c1	> 100
COc1cc(S(=O)(=O)Nc2ccc(-c3csc(N4C(=O)C(C)SC4c4cccc(Oc5ccccc5)c4)n3)cc2)ccc1Cl (centres undefined)	> 100
O=c1cc(NNc2ccc(F)cc2)[nH]c(=O)[nH]1	37.1
CC(CCc1ccccc1)NCC(O)n1c(/N=N/N(C)C)nc2c1c(=O)n(C)c(=O)n2C (centres undefined)	> 100
O=C1CC(Cl)c2c1csc2Br (centres undefined)	32.9

system: MDA-N; assay: DTP human tumour cell line panel, 48 h

SMILES	TGI [µM]
Cc1ccc(N=Nc2c(O)c(C(=O)O)cc3ccccc23)c(S(=O)(=O)O)c1	> 100
COc1cc(S(=O)(=O)Nc2ccc(-c3csc(N4C(=O)C(C)SC4c4cccc(Oc5ccccc5)c4)n3)cc2)ccc1Cl (centres undefined)	> 100
O=c1cc(NNc2ccc(F)cc2)[nH]c(=O)[nH]1	30.8
CC(CCc1ccccc1)NCC(O)n1c(/N=N/N(C)C)nc2c1c(=O)n(C)c(=O)n2C (centres undefined)	> 100
O=C1CC(Cl)c2c1csc2Br (centres undefined)	42.2

system: EKVX NSCLC; assay: DTP human tumour cell line panel, 48 h

SMILES	TGI [µM]
Cc1ccc(N=Nc2c(O)c(C(=O)O)cc3ccccc23)c(S(=O)(=O)O)c1	> 100
COc1cc(S(=O)(=O)Nc2ccc(-c3csc(N4C(=O)C(C)SC4c4cccc(Oc5ccccc5)c4)n3)cc2)ccc1Cl (centres undefined)	> 100
O=c1cc(NNc2ccc(F)cc2)[nH]c(=O)[nH]1	32.2
CC(CCc1ccccc1)NCC(O)n1c(/N=N/N(C)C)nc2c1c(=O)n(C)c(=O)n2C (centres undefined)	> 100
O=C1CC(Cl)c2c1csc2Br (centres undefined)	43.2

system: HT29 colon; assay: DTP human tumour cell line panel, 48 h

SMILES	TGI [µM]
Cc1ccc(N=Nc2c(O)c(C(=O)O)cc3ccccc23)c(S(=O)(=O)O)c1	> 100
COc1cc(S(=O)(=O)Nc2ccc(-c3csc(N4C(=O)C(C)SC4c4cccc(Oc5ccccc5)c4)n3)cc2)ccc1Cl (centres undefined)	> 100
O=c1cc(NNc2ccc(F)cc2)[nH]c(=O)[nH]1	33.9
CC(CCc1ccccc1)NCC(O)n1c(/N=N/N(C)C)nc2c1c(=O)n(C)c(=O)n2C (centres undefined)	> 100
O=C1CC(Cl)c2c1csc2Br (centres undefined)	43.9
